The test system of this test is HCV. The experiment in a line: Assay of anti-HCV activity in HCV-infected Huh7.5 cells (intracellular HCV RNA by one-step quantitative RT-PCR). It counts as cell-based. The following applies: Hepatitis C virus; compound at 1 μM; Huh7.5 cells infected with HCV; 96 hrs; intracellular HCV RNA vs viral control; read-out: inhibitory activities (inhibitory levels of the compounds against HCV replication). As to the method:
100 μL Huh7.5 cells were seeded at a density of 1×10^5/mL in a 96-well cell culture plate and incubated in an incubator at 37° C., 5% CO2 and saturated humidity for 6 hrs. Then, while infecting Huh7.5 cells with viral solution containing HCV virus particles, the compounds of the present invention (including all specific compounds listed herein) were added at a concentration of 1 μM, respectively. After continuing incubation for 96 hrs, the total intracellular RNA was extracted separately, and the content of intracellular HCV RNA was measured by one-step quantitative RT-PCR, compared with the RNA level of the viral control, and the inhibition rate of the compounds against HCV was calculated.

In the case of `CN(CC1CCCN1C)c1ccc(C(F)(F)F)c(CN2CCN(c3ccc(Br)cc3)CC2)c1` (centres unmarked) [Compound 24, 3-((4-(4-bromophenyl)piperazin-1-yl)methyl)-N-methyl-N-((1-methylpyrrolidin-2-yl)methyl)-4-(trifluoromethyl)aniline], the inhibition at 1 µM is over 75%.

`CCN1CCCC1CN(C)c1ccc(C(F)(F)F)c(CN2CCN(c3ccc(Cl)cc3)CC2)c1` (centres unmarked) [Compound 25, 3-((4-(4-chlorophenyl)piperazin-1-yl)methyl)-N-((1-ethylpyrrolidin-2-yl)methyl)-N-methyl-4-(trifluoromethyl)aniline]: the inhibition at 1 µM is over 75%.

Take `CN(C)CCN(C)c1ccc(C(F)(F)F)c(CN2CCN(c3ccc(Br)c(Cl)c3)CC2)c1` [Compound 26, N^1-(3-((4-(4-bromo-3-chlorophenyl)piperazin-1-yl)methyl)-4-(trifluoromethyl)phenyl)-N^1,N^2,N^2-trimethylethan-1,2-diamine]: the inhibition at 1 µM was over 75%.

For `CN(C)C1CCN(c2ccc(C(F)(F)F)c(CN3CCN(c4ccc(Cl)cc4)CC3)c2)CC1` [Compound 27, 1-(3-((4-(4-chlorophenyl)piperazin-1-yl)methyl)-4-(trifluoromethyl)phenyl)-N,N-dimethylpiperidin-4-amine], the inhibition at 1 µM was over 75%.

Regarding `FC(F)(F)c1ccc(N2CCC(N3CCCC3)CC2)cc1CN1CCN(c2ccc(Cl)cc2)CC1` [Compound 28, 1-(4-chlorophenyl)-4-(5-(4-(pyrrolidin-1-yl)piperidin-1-yl)-2-(trifluoromethyl)benzyl)piperazine], the inhibition at 1 µM is over 75%.

Regarding `CN(C)C1CCN(c2ccc(C(F)(F)F)c(CN3CCN(c4ccc(Cl)cc4)CC3)c2)C1` (centres unmarked) [Compound 29, 1-(3-((4-(4-chlorophenyl)piperazin-1-yl)methyl)-4-(trifluoromethyl)phenyl)-N,N-dimethylpyrrolidin-3-amine], the inhibition at 1 µM is over 75%.

On to `CN1CCN(c2ccc(C(F)(F)F)c(CN3CCN(c4ccc(Cl)cc4)CC3)c2)CC1` [Compound 30, 1-(4-chlorophenyl)-4-(5-(4-methylpiperazin-1-yl)-2-(trifluoromethyl)benzyl)piperazine], for which the inhibition at 1 µM is over 75%.

Take `CC1CN(c2ccc(Cl)cc2)CCN1Cc1cc(N(C)CN2CCCCC2)ccc1C(F)(F)F` (centres unmarked) [Compound 31, 3-((4-(4-chlorophenyl)-2-methylpiperazin-1-yl)methyl)-N-methyl-N-(piperidin-1-ylmethyl)-4-(trifluoromethyl)aniline]: the inhibition at 1 µM was over 75%.

Consider `CC1CN(c2ccc(Cl)c(C(F)(F)F)c2)CCN1Cc1cc(N2CCCN(C)CC2)ccc1C(F)(F)F` (centres unmarked) [Compound 32, 1-(3-((4-(4-chloro-3-(trifluoromethyl)phenyl)-2-methylpiperazin-1-yl)methyl)-4-(trifluoromethyl)phenyl)-4-methyl-1,4-diazepane], for which the inhibition at 1 µM was over 75%.

With `CC1CN(c2ccc(Br)c(C(F)(F)F)c2)CCN1Cc1cc(N(C)CCN(C)C)ccc1C(F)(F)F` (centres unmarked) [Compound 33, N^1-(3-((4-(4-bromo-3-(trifluoromethyl)phenyl)-2-methylpiperazin-1-yl)methyl)-4-(trifluoromethyl)phenyl)-N^1,N^2,N^2-trimethylethan-1,2-diamine], the inhibition at 1 µM was over 75%.

Turning to `CCCC1CN(c2ccc(C(F)(F)F)cc2)CCN1Cc1cc(N2CCCN(C)CC2)ccc1C(F)(F)F` (centres unmarked) [Compound 34, 1-methyl-4-(3-((2-propyl-4-(4-(trifluoromethyl)phenyl)piperazin-1-yl)methyl)-4-(trifluoromethyl)phenyl)-1,4-diazepane], the inhibition at 1 µM is over 75%.

On to `CCN1CCCN(c2ccc(C(F)(F)F)c(CN3CCN(c4ccc(C)c(Cl)c4)CC3)c2)CC1` [Compound 35, 1-(3-((4-(3-chloro-4-methylphenyl)piperazin-1-yl)methyl)-4-(trifluoromethyl)phenyl)-4-ethyl-1,4-diazepane], for which the inhibition at 1 µM is over 75%.

With `CN1CCCN(c2ccc(C(F)(F)F)c(CN3CCN(c4ccc(F)cc4)CC3)c2)CC1` [Compound 36, 1-(3-((4-(4-fluorophenyl)piperazin-1-yl)methyl)-4-(trifluoromethyl)phenyl)-4-methyl-1,4-diazepane], the inhibition at 1 µM was over 75%.

For the molecule `CN1CCCN(c2ccc(C(F)(F)F)c(CN3CCN(c4ccc(F)c(Cl)c4)CC3)c2)CC1` [Compound 37, 1-(3-((4-(3-chloro-4-fluorophenyl)piperazin-1-yl)methyl)-4-(trifluoromethyl)phenyl)-4-methyl-1,4-diazepane], the inhibition at 1 µM is over 75%.

In the case of `CN(CCN1CCCC1)c1ccc(C(F)(F)F)c(CN2CCC(c3ccc(Cl)cc3)CC2)c1` [Compound 39, 3-((4-(4-chlorophenyl)piperidin-1-yl)methyl)-N-methyl-N-(2-(pyrrolidin-1)ethyl)-4-(trifluoromethyl)aniline], the inhibition at 1 µM is over 75%.

For `Cc1cc(N2CCN(Cc3cc(N4CCCN(C)CC4)ccc3C(F)(F)F)CC2)ccc1Cl` [Compound 40, 1-(3-((4-(4-chloro-3-methylphenyl)piperazin-1-yl)methyl)-4-(trifluoromethyl)phenyl)-4-methyl-1,4-diazepane], the inhibition at 1 µM is over 75%.

Regarding `CN(C)CCN(C)c1ccc(C(F)(F)F)c(CN2CCN(c3ccc(Cl)c(F)c3)CC2)c1` [Compound 41, N^1-(3-((4-(4-chloro-3-fluorophenyl)piperazin-1-yl)methyl)-4-(trifluoromethyl)phenyl)-N^1,N^2,N^2-trimethylethan-1,2-diamine], the inhibition at 1 µM is over 75%.

On to `CN(C)CCN(C)c1ccc(C(F)(F)F)c(CN2CCC(c3ccc(Cl)c(Cl)c3)CC2)c1` [Compound 42, N^1-(3-((4-(3,4-dichlorophenyl)piperidin-1-yl)methyl)-4-(trifluoromethyl)phenyl)-N^1,N^2,N^2-trimethylethan-1,2-diamine], for which the inhibition at 1 µM was over 75%.

On to `Cc1cc(C2CCN(Cc3cc(N4CCCN(C)CC4)ccc3C(F)(F)F)CC2)ccc1Cl` [Compound 43, 1-(3-((4-(4-chloro-3-methylphenyl)piperidin-1-yl)methyl)-4-(trifluoromethyl)phenyl)-4-methyl-1,4-diazepane], for which the inhibition at 1 µM is over 75%.

On to `CN1CCCN(c2ccc(C(F)(F)F)c(CN3CCN(C(c4ccc(F)cc4)c4ccc(F)cc4)CC3)c2)CC1` [Compound 44, 1-(3-((4-(bis(4-fluorophenyl)methyl)piperazin-1-yl)methyl)-4-(trifluoromethyl)phenyl)-4-methyl-1,4-diazepane], for which the inhibition at 1 µM is over 75%.

As for `Cc1ccc(C(c2ccc(C)cc2)N2CCN(Cc3cc(N4CCCN(C)CC4)ccc3C(F)(F)F)CC2)cc1` [Compound 45, 1-(3-((4-(bis(4-methylphenyl)methyl)piperazin-1-yl)methyl)-4-(trifluoromethyl)phenyl)-4-methyl-1,4-diazepane], the inhibition at 1 µM was over 75%.

Turning to `CN1CCCN(c2ccc(C(F)(F)F)c(CN3CCN(C(c4ccc(Cl)cc4)c4ccc(Cl)cc4)CC3)c2)CC1` [Compound 46, 1-(3-((4-(bis(4-chlorophenyl)methyl)piperazin-1-yl)methyl)-4-(trifluoromethyl)phenyl)-4-methyl-1,4-diazepane], the inhibition at 1 µM was over 75%.

As to `CN1CCCN(c2ccc(C(F)(F)F)c(CN3CCN(C(c4ccc(Br)cc4)c4ccc(Br)cc4)CC3)c2)CC1` [Compound 47, 1-(3-((4-(bis(4-bromophenyl)methyl)piperazin-1-yl)methyl)-4-(trifluoromethyl)phenyl)-4-methyl-1,4-diazepane], the inhibition at 1 µM is over 75%.

As to `CC(C)c1ccc(C(c2ccc(C(C)C)cc2)N2CCN(Cc3cc(N4CCCN(C)CC4)ccc3C(F)(F)F)CC2)cc1` [Compound 48, 1-(3-((4-(bis(4-isopropylphenyl)methyl)piperazin-1-yl)methyl)-4-(trifluoromethyl)phenyl)-4-methyl-1,4-diazepane], the inhibition at 1 µM was over 75%.

On to `CN(C)CCN(C)c1ccc(C(F)(F)F)c(CN2CCN(C(c3ccc(C4CC4)cc3)c3ccc(C4CC4)cc3)CC2)c1` [Compound 49, N^1-(3-((4-(bis(4-cyclopropylphenyl)methyl)piperazin-1-yl)methyl)-4-(trifluoromethyl)phenyl)-N^1,N^2,N^2-trimethylethan-1,2-diamine], for which the inhibition at 1 µM was over 75%.

`CN(CCN1CCC1)c1ccc(C(F)(F)F)c(CN2CCN(C(c3ccc(Cl)cc3)c3ccc(Cl)cc3)CC2)c1` [Compound 50, N-(2-(azetidin-1-yl)ethyl)-3-((4-(bis(4-chlorophenyl)methyl)piperazin-1-yl)methyl)-N-methyl-4-(trifluoromethyl)aniline]: the inhibition at 1 µM was 50 to 75%.

Turning to `CN1CCCN(c2ccc(C(F)(F)F)c(CN3CCN(C(c4ccccc4)c4ccc(F)cc4)CC3)c2)CC1` (centres unmarked) [Compound 51, 1-(3-((4-((4-fluorophenyl)(phenyl)methyl)piperazin-1-yl)methyl)-4-(trifluoromethyl)phenyl)-4-methyl-1,4-diazepane], the inhibition at 1 µM is over 75%.

Consider `CN(C)CCN(C)c1ccc(C(F)(F)F)c(CN2CCN(C(c3ccc(Cl)cc3)c3ccc(Cl)cc3)CC2)c1` [Compound 52, N^1-(3-((4-(bis(4-chlorophenyl)methyl)piperazin-1-yl)methyl)-4-(trifluoromethyl)phenyl)-N^1,N^2,N^2-trimethylethan-1,2-diamine], for which the inhibition at 1 µM was over 75%.

`CN(C)CCN(C)c1ccc(C(F)(F)F)c(CN2CCN(C(c3ccc(C(F)(F)F)cc3)c3ccc(C(F)(F)F)cc3)CC2)c1` [Compound 53, N^1-(3-((4-(bis(4-(trifluoromethyl)phenyl)methyl)piperazin-1-yl)methyl)-4-(trifluoromethyl)phenyl)-N^1,N^2,N^2-trimethylethan-1,2-diamine]: the inhibition at 1 µM is over 75%.
